Series [1] deals with human skin fibroblasts (R201C). The series can be described thus: Cell viability and growth of treated fibroblasts. It is filed as cell-based. Conditions: for cell growth at higher concentrations: concentrations higher than 10 µM, over the incubation time; for cell viability at more than 100 µM: concentrations of more than 100 µM; for influence on cell viability: incubation of the cells up to 10 µM. Here is the method:
Cell lines from one GM1-Gangliosidosis-patient (R201C) and one WT, were exposed to compounds 22, 31, and 37, for evaluation of their chaperone effects.
Human skin fibroblasts were grown in minimal essential medium (MEM) with Earle’s Salts (Sigma Aldrich, St. Louis, MO, USA) containing 10% fetal bovine serum, 400 µM L-glutamine, and 50 µg/mL gentamycin at 37 °C and 5% CO2. All cells used in this study were between the third and nineteenth passages.
Fibroblasts were grown to semi-confluency in 6-well plates. Particular chaperone was added to the culture medium at following concentrations: 100–0.02 µmol. Cells were incubated for four additional days at 37 °C. Cells were harvested by scraping and prepared for β-galactosidase and β-hexosaminidase assays as described above.

Series [2] deals with T1, β-glucosidase/β-galactosidase from Agrobacterium sp. (Abg, GH1) (Agrobacterium sp., UniProt P12614).
T1 sequence (P12614 1-459): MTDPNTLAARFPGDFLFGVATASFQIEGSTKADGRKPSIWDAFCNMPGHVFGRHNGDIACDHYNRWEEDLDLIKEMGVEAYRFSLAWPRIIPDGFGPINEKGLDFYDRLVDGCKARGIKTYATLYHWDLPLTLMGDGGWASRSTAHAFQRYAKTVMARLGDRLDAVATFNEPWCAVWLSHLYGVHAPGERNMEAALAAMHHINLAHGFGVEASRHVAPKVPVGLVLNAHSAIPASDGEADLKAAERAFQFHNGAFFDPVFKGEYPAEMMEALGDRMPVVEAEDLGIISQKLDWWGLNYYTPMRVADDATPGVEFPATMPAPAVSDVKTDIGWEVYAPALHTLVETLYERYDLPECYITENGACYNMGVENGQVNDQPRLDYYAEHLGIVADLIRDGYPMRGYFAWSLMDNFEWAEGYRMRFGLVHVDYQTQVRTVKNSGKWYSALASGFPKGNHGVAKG
Conditions: read-out: Ki Abg (β-Glc/Gal) (GH1); cited from earlier work.

For series [3], the target named is lac Z β-galactosidase from E. coli (GH2) (Escherichia coli, UniProt P00722). Conditions: read-out: Ki E. coli (β-Gal) (GH2); cited from earlier work.
lac Z β-galactosidase from E. coli (GH2), sequence (P00722 2-1024): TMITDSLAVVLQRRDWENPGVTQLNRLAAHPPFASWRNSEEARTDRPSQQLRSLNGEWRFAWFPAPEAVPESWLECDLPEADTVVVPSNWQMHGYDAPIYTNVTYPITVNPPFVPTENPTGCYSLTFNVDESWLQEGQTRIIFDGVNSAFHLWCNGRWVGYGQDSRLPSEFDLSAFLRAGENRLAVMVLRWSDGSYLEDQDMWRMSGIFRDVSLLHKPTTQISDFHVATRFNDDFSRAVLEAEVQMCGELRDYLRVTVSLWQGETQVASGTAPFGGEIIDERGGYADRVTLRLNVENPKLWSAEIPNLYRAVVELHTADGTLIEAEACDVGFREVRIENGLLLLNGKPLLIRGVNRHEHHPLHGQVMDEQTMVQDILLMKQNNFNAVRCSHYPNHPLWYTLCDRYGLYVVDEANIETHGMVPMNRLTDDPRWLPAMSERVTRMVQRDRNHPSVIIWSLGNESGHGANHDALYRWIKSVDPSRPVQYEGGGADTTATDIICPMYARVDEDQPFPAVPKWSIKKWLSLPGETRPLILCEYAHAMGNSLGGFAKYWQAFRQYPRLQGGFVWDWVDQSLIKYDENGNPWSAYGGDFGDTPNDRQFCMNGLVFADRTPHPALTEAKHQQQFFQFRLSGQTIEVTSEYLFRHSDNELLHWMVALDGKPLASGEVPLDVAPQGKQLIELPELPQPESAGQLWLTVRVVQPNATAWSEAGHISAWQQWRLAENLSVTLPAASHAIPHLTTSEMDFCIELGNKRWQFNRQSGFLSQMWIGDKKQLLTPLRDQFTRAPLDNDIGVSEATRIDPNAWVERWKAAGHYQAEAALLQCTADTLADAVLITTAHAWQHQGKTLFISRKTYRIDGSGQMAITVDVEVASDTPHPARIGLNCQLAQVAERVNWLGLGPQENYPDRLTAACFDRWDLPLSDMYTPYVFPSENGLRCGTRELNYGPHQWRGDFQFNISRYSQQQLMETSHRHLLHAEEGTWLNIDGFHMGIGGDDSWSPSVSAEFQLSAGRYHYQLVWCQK
In series [4] the target is T2, Fabrazyme = commercial recombinant lysosomal α-galactosidase (GH27) (Homo sapiens, UniProt P06280).
T2 construct: purchased
T2 sequence (P06280 32-429): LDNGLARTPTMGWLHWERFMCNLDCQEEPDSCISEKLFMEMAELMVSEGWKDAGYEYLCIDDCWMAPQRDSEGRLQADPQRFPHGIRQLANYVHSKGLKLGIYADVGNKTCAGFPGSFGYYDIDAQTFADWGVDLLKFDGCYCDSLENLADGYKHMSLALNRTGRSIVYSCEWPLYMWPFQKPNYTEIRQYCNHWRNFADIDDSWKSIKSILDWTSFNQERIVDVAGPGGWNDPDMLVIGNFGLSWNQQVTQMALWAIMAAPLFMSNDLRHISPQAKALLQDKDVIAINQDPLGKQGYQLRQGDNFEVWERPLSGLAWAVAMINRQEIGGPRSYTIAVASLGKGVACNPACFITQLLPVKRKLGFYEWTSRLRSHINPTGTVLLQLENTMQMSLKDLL
Conditions: read-out: Ki Fabrazyme (α-Gal) (GH27); cited from earlier work.

Series [5] addresses T3, recombinant human lysosomal β-glucocerebrosidase (GCase, GH30) (Homo sapiens, UniProt P04062).
T3 sequence (P04062 40-536): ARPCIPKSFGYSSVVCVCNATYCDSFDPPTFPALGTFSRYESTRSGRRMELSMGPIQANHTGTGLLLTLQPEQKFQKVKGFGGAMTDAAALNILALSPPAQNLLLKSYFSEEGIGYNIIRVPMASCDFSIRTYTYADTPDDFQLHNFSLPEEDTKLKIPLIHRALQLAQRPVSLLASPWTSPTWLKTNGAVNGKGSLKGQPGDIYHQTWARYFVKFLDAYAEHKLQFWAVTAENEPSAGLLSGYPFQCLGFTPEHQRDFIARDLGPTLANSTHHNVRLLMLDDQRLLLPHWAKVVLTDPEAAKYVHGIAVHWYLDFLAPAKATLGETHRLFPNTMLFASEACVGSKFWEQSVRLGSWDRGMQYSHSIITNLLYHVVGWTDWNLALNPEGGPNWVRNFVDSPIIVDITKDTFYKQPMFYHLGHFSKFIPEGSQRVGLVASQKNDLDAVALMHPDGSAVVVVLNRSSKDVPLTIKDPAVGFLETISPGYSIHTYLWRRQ
Conditions: read-out: Ki GCase (β-Glc) (GH30); cited from earlier work.

Series [6] has as its target T4, human lysosomal acid β-galactosidase (GH35) (Homo sapiens, UniProt P16278).
T4 construct: Activity was measured in normal fibroblasts; endogenous in cells; host or cells: normal human skin fibroblasts (homogenate)
T4 sequence (P16278 29-677): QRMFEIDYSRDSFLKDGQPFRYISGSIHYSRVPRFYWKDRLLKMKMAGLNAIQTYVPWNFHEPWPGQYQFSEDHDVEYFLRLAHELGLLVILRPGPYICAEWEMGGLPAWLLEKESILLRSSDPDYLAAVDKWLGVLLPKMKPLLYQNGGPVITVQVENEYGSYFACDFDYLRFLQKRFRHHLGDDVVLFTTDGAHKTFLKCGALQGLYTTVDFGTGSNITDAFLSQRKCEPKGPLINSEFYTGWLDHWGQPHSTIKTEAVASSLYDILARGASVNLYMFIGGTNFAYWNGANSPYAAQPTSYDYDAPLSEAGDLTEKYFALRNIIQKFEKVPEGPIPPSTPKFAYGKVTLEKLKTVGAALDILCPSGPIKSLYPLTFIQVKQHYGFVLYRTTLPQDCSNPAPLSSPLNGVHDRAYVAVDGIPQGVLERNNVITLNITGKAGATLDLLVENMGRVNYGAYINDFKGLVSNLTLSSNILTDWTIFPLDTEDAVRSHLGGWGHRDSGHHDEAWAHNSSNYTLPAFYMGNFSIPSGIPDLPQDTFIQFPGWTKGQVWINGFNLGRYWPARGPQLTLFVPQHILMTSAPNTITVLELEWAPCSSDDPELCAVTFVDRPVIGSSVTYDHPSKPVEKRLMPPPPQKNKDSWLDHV
To be noted: read-out: β-Gal human lys. (GH35); cited from earlier work.

Each structure is given as a SMILES string.

With `CN(C)c1cccc2c(S(=O)(=O)NCCCCCCN[C@H]3[C@H](F)[C@@H](O)[C@@H](O)[C@H]3CO)cccc12` [Compound 37, (1S,2S,3S,4R,5R)-4-(6′-Dansylaminohexyl)amino-3-fluoro-5-hydroxymethylcyclopentane-1,2-diol], in series [1], the “cell growth at higher concentrations” value is on record as “complete arrest of cell growth”, the “cell viability at more than 100 µM” value was “dramatic loss” and the “influence on cell viability” value is “no notable influence”.

In the case of `CN(C)c1cccc2c(S(=O)(=O)NCCCCCCN[C@H]3[C@H](O)[C@@H](O)[C@@H](O)[C@H]3CO)cccc12` [Compound 17], the Ki in series [2] is 0.0012 µM; in series [3], 0.0101 µM; in series [4], 238 µM; in series [5] it was 0.0193 µM. For the same molecule, the IC50 in series [6] is 0.4 µM.

`CN(C)c1cccc2c(S(=O)(=O)NCCCCCC[C@@H]3NC[C@@H](O)[C@@H](O)[C@H]3CO)cccc12` [Compound 14]: the Ki in series [2] is 0.0175 µM; in series [3], 0.0021 µM; in series [4], over 1000 µM; in series [5] it was 1.2 µM. Moreover, the IC50 in series [6] was 0.38 µM.

Take `CN(C)c1cccc2c(S(=O)(=O)NCCCCCCN[C@H]3C[C@@H](O)[C@@H](O)[C@H]3CO)cccc12` [Compound 31, (1R,2S,3R,4S)-3-Hydroxymethyl-4-(6′-dansylaminohexylamino)cyclopentane-1,2-diol]: in series [1], the “cell growth at higher concentrations” value was “complete arrest of cell growth”, the “cell viability at more than 100 µM” value was “dramatic loss” and the “influence on cell viability” value is “no notable influence”.
